Results from PMC7024217, “Study on Structure Activity Relationship of Natural Flavonoids against Thrombin by Molecular Docking Virtual Screening Combined with Activity Evaluation In Vitro” (Molecules, 2020).
Read-outs that look alike come from different tables or passages of the source.

Molecular target: T1, bovine thrombin (Bos taurus, UniProt P00735)
T1 construct: bovine thrombin and argatroban were purchased from Sigma-Aldrich; purchased Sigma-Aldrich (St. Louis, MO, USA)
Assay: Thrombin inhibitory activity assay (chromogenic substrate S-2238);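 note: microplate absorbance read-out, thrombin preincubated with test compound 5 min at 37 °C in PBS pH 7.2-7.4, inhibition relative to blank without compound after subtracting compound-only background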
Assay type: biochemical
Settings: for Group (inhibitor class) / inhibitor class: class by anti-thrombin IC50

[1] = Table 1, anti-thrombin, substrate S-2238 4 mg/mL, read-out: IC50
[2] = Table 2, anti-thrombin, read-out: IC50 ±SD
[3] = thrombin inhibition, substrate 4 mg/mL, read-out: IC50

## O=c1c(O)c(-c2ccc(O)cc2)oc2cc(O)cc(O)c12 [Kaempferol]
[1]
  IC50: 107 ± 2 µM
[2]
  IC50: 107 ± 2 µM
Table 2
  Group (inhibitor class): Moderate inhibitor
  inhibitor class: moderate inhibitors (compounds with IC50 value ranging from 100 μM to 200 μM were considered as moderate inhibitors)

## O=C1c2c(O)cc(O)cc2O[C@H](c2ccc(O)c(O)c2)[C@H]1O [Dihydroquercetin]
[1]
  IC50: > 500 µM

## COc1ccc(-c2cc(=O)c3c(O)cc(O)cc3o2)cc1O [Diosmetin]
Table 2
  Group (inhibitor class): Moderate inhibitor
  inhibitor class: moderate inhibitors (compounds with IC50 value ranging from 100 μM to 200 μM were considered as moderate inhibitors)

## Oc1cc(O)c2c(c1)OC(c1cc(O)c(O)c(O)c1)C(O)C2 (single isomer, unassigned; (-)) [(-)-epigallocatechin]
IC50
  IC50: > 500 µM

## COc1ccc([C@@H]2CC(=O)c3c(O)cc(O[C@@H]4O[C@H](CO)[C@@H](O)[C@H](O)[C@H]4O[C@@H]4O[C@@H](C)[C@H](O)[C@@H](O)[C@H]4O)cc3O2)cc1O [Neohesperidin]
[1]
  IC50: > 500 µM

## COc1cc(O)c2c(=O)cc(-c3ccc(O)c(O)c3)oc2c1 [Hydroxygenkwanin]
[1]
  IC50: 99.7 ± 5.5 µM
[2]
  IC50: 99.7 ± 5.5 µM
Table 2
  Group (inhibitor class): Strong inhibitor

## O=c1c(O)c(-c2ccc(O)cc2O)oc2cc(O)cc(O)c12 [Morin]
[1]
  IC50: 237 ± 26 µM
  inhibitor class: weak thrombin inhibitors (classified as weak thrombin inhibitors since their IC50 values ranged from 200 μM to 500 μM)

## COc1cc(-c2oc3cc(O)cc(O)c3c(=O)c2O[C@@H]2O[C@H](CO[C@@H]3O[C@@H](C)[C@H](O)[C@@H](O)[C@H]3O)[C@@H](O)[C@H](O)[C@H]2O[C@@H]2O[C@@H](C)[C@H](O)[C@@H](O)[C@H]2O)ccc1O [Typhaneoside]
[1]
  IC50: > 500 µM

## C[C@@H]1O[C@@H](O[C@H]2[C@H](Oc3cc(O)c4c(c3)O[C@H](c3ccc(O)cc3)CC4=O)O[C@H](CO)[C@@H](O)[C@@H]2O)[C@H](O)[C@H](O)[C@H]1O [Naringin]
[1]
  IC50: 444 ± 59 µM
  inhibitor class: weak thrombin inhibitors (classified as weak thrombin inhibitors since their IC50 values ranged from 200 μM to 500 μM)

## O=C1c2c(O)cc(O)cc2O[C@H](c2cc(O)c(O)c(O)c2)[C@H]1O [Dihydromyricetin]
[1]
  IC50: > 500 µM

## COc1cc(-c2oc3cc(O)cc(O)c3c(=O)c2O)ccc1O [Isorhamnetin]
Table 2
  Group (inhibitor class): Strong inhibitor

## O=c1cc(-c2ccc(O)c(O)c2)oc2cc(O)cc(O)c12 [Luteolin]
[1]
  IC50: 146 ± 10 µM
Table 2
  Group (inhibitor class): Moderate inhibitor
  inhibitor class: moderate inhibitors (compounds with IC50 value ranging from 100 μM to 200 μM were considered as moderate inhibitors)

## O=c1cc(-c2ccccc2)oc2cc(O)c(O)c(O)c12 [Baicalein]
[1]
  IC50: 249 ± 31 µM
  inhibitor class: weak thrombin inhibitors (classified as weak thrombin inhibitors since their IC50 values ranged from 200 μM to 500 μM)

## O=c1c(O)c(-c2ccc(O)cc2)oc2c(O)c(O)cc(O)c12 [Herbacetin]
[1]
  IC50: 133 ± 4 µM
[2]
  IC50: 133 ± 4 µM
Table 2
  Group (inhibitor class): Moderate inhibitor
  inhibitor class: moderate inhibitors (compounds with IC50 value ranging from 100 μM to 200 μM were considered as moderate inhibitors)

## O=c1c(O)c(-c2ccc(O)c(O)c2)oc2cc(O)ccc12 [Fisetin]
[1]
  IC50: 175 ± 18 µM
Table 2
  Group (inhibitor class): Moderate inhibitor
  inhibitor class: moderate inhibitors (compounds with IC50 value ranging from 100 μM to 200 μM were considered as moderate inhibitors)

## O=C1C[C@@H](c2ccc(O)cc2)Oc2cc(O)cc(O)c21 [Naringenin]
[1]
  IC50: > 500 µM

## O=c1c(O)c(-c2ccc(O)cc2)oc2cc(O[C@@H]3O[C@H](CO)[C@@H](O)[C@H](O)[C@H]3O)cc(O)c12 [Kaempferol-7-O-β-D-glucopyranoside]
[1]
  IC50: > 500 µM

## Oc1cc(O)c2c(c1)OC(c1ccc(O)c(O)c1)C(O)C2c1c(O)cc(O)c2c1OC(c1ccc(O)c(O)c1)C(O)C2 (stereo not drawn) [Proanthocyanidin B1]
[1]
  IC50: > 500 µM

## COc1cc(-c2oc3cc(O)cc(O)c3c(=O)c2OC2OC(CO)C(O)C(O)C2OC2OC(C)C(O)C(O)C2O)ccc1O (stereo not drawn) [Isorhamnetin-3-O-neohesperidoside]
[1]
  IC50: > 500 µM

## C[C@@H]1O[C@@H](OC[C@H]2O[C@@H](Oc3c(-c4ccc(O)c(O)c4)oc4cc(O)cc(O)c4c3=O)[C@H](O)[C@@H](O)[C@@H]2O)[C@H](O)[C@H](O)[C@H]1O [Rutin]
[1]
  IC50: 274 ± 23 µM
  inhibitor class: weak thrombin inhibitors (classified as weak thrombin inhibitors since their IC50 values ranged from 200 μM to 500 μM)

## COc1ccc([C@@H]2CC(=O)c3c(O)cc(O)cc3O2)cc1O [Hesperetin]
[1]
  IC50: > 500 µM

## O=C(OC1Cc2c(O)cc(O)cc2OC1c1ccc(O)c(O)c1)c1cc(O)c(O)c(O)c1 (single isomer, unassigned; (-)) [(-)-Epicatechin gallate]
[1]
  IC50: > 500 µM

## O=c1c(O)c(-c2ccccc2)oc2cc(O)cc(O)c12 [Galangin]
[1]
  IC50: 159 µM
[2]
  IC50: 159 µM
Table 2
  Group (inhibitor class): Moderate inhibitor
  inhibitor class: moderate inhibitors (compounds with IC50 value ranging from 100 μM to 200 μM were considered as moderate inhibitors)

## C[C@@H]1O[C@@H](OC[C@H]2O[C@@H](Oc3cc(O)c4c(c3)O[C@H](c3ccc(O)cc3)CC4=O)[C@H](O)[C@@H](O)[C@@H]2O)[C@H](O)[C@H](O)[C@H]1O [Narirutin]
[1]
  IC50: > 500 µM

## O=c1c(O[C@@H]2O[C@H](CO)[C@@H](O)[C@H](O)[C@H]2O)c(-c2ccc(O)c(O)c2)oc2cc(O)cc(O)c12 [Isoquercitrin]
[1]
  IC50: > 500 µM

## COc1ccc([C@@H]2CC(=O)c3c(O)cc(O[C@@H]4O[C@H](CO[C@@H]5O[C@@H](C)[C@H](O)[C@@H](O)[C@H]5O)[C@@H](O)[C@H](O)[C@H]4O)cc3O2)cc1O [Hesperidin]
[1]
  IC50: > 500 µM

## O=c1cc(-c2ccc(O)c(O)c2)oc2cc(O[C@@H]3O[C@H](CO)[C@@H](O)[C@H](O)[C@H]3O)cc(O)c12 [Luteoloside]
[1]
  IC50: 155 ± 18 µM
[2]
  IC50: 155 ± 18 µM
Table 2
  Group (inhibitor class): Moderate inhibitor
  inhibitor class: moderate inhibitors (compounds with IC50 value ranging from 100 μM to 200 μM were considered as moderate inhibitors)

## C[C@@H]1O[C@@H](Oc2c(-c3ccc(O)c(O)c3)oc3cc(O)cc(O)c3c2=O)[C@H](O)[C@H](O)[C@H]1O [Quercitrin]
[1]
  IC50: > 500 µM

## COc1c(O[C@@H]2O[C@H](C(=O)O)[C@@H](O)[C@H](O)[C@H]2O)cc(O)c2c(=O)cc(-c3ccccc3)oc12 [Wogonoside]
[1]
  IC50: > 500 µM

## O=C(O)[C@H]1O[C@@H](Oc2cc3oc(-c4ccccc4)cc(=O)c3c(O)c2O)[C@H](O)[C@@H](O)[C@@H]1O [Baicalin]
[1]
  IC50: 88.6 ± 8.2 µM
[2]
  IC50: 88.6 ± 8.2 µM
Table 2
  Group (inhibitor class): Strong inhibitor

## COc1cc(O)c2c(=O)cc(-c3ccc(O)cc3)oc2c1 [Genkwanin]
[1]
  IC50: 212 ± 30 µM
  inhibitor class: weak thrombin inhibitors (classified as weak thrombin inhibitors since their IC50 values ranged from 200 μM to 500 μM)
[3]
  IC50: 211 µM

## COc1c(O)cc2oc(-c3ccc(O)cc3)cc(=O)c2c1O [Hispidulin]
[1]
  IC50: 126 ± 6 µM
[2]
  IC50: 126 ± 6 µM
Table 2
  Group (inhibitor class): Moderate inhibitor
  inhibitor class: moderate inhibitors (compounds with IC50 value ranging from 100 μM to 200 μM were considered as moderate inhibitors)

## Myricitrin
Table 2
  Group (inhibitor class): Strong inhibitor

## O=c1cc(-c2ccc(O)cc2)oc2cc(O)c(O)c(O)c12 [Scutellarein]
[1]
  IC50: 70.8 ± 2.7 µM
[2]
  IC50: 70.8 ± 2.7 µM
Table 2
  Group (inhibitor class): Strong inhibitor
[3]
  IC50: < 100 µM

## Oc1cc(O)c2c(c1)O[C@H](c1ccc(O)c(O)c1)[C@H](O)C2 [Epicatechin]
[1]
  IC50: > 500 µM

## O=c1c(O)c(-c2ccc(O)c(O)c2)oc2cc(O)cc(O)c12 [Quercetin]
  inhibitor class: weak thrombin inhibitors (classified as weak thrombin inhibitors since their IC50 values ranged from 200 μM to 500 μM)

## O=c1cc(-c2ccc(O)cc2)oc2cc(O)cc(O)c12 [Apigenin]
Table 2
  Group (inhibitor class): Strong inhibitor

## O=c1c(OC2OC(CO)C(O)C(O)C2O)c(-c2ccc(O)cc2)oc2cc(O)cc(O)c12 (stereo not drawn) [Astragaline]
[1]
  IC50: 217 ± 5 µM
  inhibitor class: weak thrombin inhibitors (classified as weak thrombin inhibitors since their IC50 values ranged from 200 μM to 500 μM)
